Test results as given in BigSolDB 2.1.

CC(C)(Oc1ccc(CCNC(=O)c2ccc(Cl)cc2)cc1)C(=O)O
solubility (mole fraction)
Conditions	283.15 K	288.15 K	293.15 K	298.15 K	303.15 K	308.15 K	313.15 K	318.15 K	323.15 K
in ethanol	0.00223	0.00271	0.00332	0.00402	0.00482	0.00571	0.00689	0.00815	0.00977
in isopropanol	0.00152	0.00189	0.00237	0.00307	0.00384	0.00476	0.00563	0.00689	0.00832
in methanol	0.0019	0.00228	0.00283	0.00343	0.0043	0.00526	0.00648	0.00791	0.00948
in n-propanol	0.00246	0.00297	0.00361	0.00437	0.00524	0.00631	0.00743	0.0088	0.0101
in water	1.23e-06	1.58e-06	2.01e-06	2.56e-06	3.29e-06	4.13e-06	5.13e-06	6.3e-06	7.83e-06
